# According to patent US12630530B2, “FGFR inhibitor compound and use thereof” (HENAN MEDINNO PHARMACEUTICAL TECHNOLOGY CO., LTD., priority 2020, dated 2026):
# Tests used:
# Assay type in all cases: biochemical
# FGFR3 V555M [1] = target: T1, FGFR3 V555M (Homo sapiens, UniProt P22607, V555M); assay: Assay I: inhibitory activity against FGFR mutants (HTRF KinEASE-TK); settings: Table 1; ATP working concentration 20 μM, substrate TK 1 μM
# T1 construct: purchased Signalchem F06-12GG
# Protocol: (§1) Assay I: Determination of Inhibitory Activity Against FGFR Mutants
# (§2) 1×Kinase reaction buffer was formulated with 1×volume of 5× kinase reaction buffer and 4×volume of water; 5 mM MgCl2; and 1 mM DTT.
# (§3) 2.3 Screening of Compounds: • 1. Diluting a compound 4-fold in a dilution plate with DMSO, with a starting compound concentration of 2 mM (4 mM for Nentedanib). • 2. Diluting the compound 40-fold into 1× kinase reaction buffer and shaking it on a shaker for 20 minutes. • 3. […] Adding 1 μl of the compound diluted in buffer to each well, sealing the plate with a sealing membrane and centrifuging the plate at 1000 g for 30 seconds and leaving it at room temperature for 10 minutes. • 6. Formulating 2.5×TK-substrate-biotin and ATP mixture with 1× enzyme reaction buffer and adding 2 μl of K-substrate-biotin/ATP mixture to the reaction plate. • 7. Sealing the plate with a sealing membrane and centrifuging the plate at 1000 g for 30 seconds and allowing it to react at room temperature for 50 minutes. • 8. Formulating 4×Sa-XL 665 (250 nM) with HTRF assay buffer. • 9. Adding 5 μl Sa-XL 665 and 5 μl TK-Antibody-Cryptate to each well, centrifuging it at 1000 g for 30 seconds, and allowing it to react for 1 hour at room temperature. • 10. Reading fluorescence signals at 615 nm (Cryptate) and 665 nm (XL665) with Biotek. 3. Data Analysis
# (§4) 3.1 Calculation of the ratio for each well: the ratio was calculated as 665/615 nm.
# (§5) 3.3 Calculation of IC50 and plotting of inhibition curves for the compounds.
# (§6) The IC50 (half inhibition concentration) of a compound was obtained using the following non-linear fitting equation, wherein data analysis was performed using Graphpad 6.0 software.
# (§7) Data were exported from Envision and analyzed manually. The ratios were converted to inhibition rates and IC50 was calculated by Prism GraphPad 6.0 from the inhibition rates. IC50 was calculated again by the ratios to verify accuracy of the results.
# FGFR2 V564F [2] = target: T2, FGFR2 V564F (Homo sapiens, UniProt P21802, V564F); assay: as above; settings: Table 1; ATP working concentration 10 μM, substrate TK 1 μM
# T2 construct: purchased Signalchem F05-12FG
# T2 sequence (P21802 22-821 V564F): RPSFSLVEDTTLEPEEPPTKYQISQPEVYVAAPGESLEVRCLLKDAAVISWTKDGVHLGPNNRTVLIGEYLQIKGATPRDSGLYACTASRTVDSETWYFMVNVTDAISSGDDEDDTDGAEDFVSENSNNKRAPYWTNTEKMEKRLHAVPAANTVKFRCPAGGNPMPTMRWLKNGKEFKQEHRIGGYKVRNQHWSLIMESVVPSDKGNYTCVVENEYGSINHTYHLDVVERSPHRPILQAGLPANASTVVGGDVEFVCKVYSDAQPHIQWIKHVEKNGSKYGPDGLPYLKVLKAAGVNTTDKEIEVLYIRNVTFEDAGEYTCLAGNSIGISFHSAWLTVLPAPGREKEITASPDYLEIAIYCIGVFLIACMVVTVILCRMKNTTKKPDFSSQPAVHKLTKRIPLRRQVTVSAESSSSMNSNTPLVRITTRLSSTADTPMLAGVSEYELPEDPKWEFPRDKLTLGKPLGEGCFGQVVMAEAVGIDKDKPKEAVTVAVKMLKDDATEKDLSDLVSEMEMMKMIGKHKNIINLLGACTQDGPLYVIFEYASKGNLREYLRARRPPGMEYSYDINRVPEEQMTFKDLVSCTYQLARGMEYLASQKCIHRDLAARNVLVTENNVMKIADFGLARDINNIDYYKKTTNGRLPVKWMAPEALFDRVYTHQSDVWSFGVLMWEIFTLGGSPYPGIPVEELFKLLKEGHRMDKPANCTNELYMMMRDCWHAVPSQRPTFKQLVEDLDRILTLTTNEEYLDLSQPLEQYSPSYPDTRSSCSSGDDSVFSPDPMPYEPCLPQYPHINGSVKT
# Protocol: as §1, §2
# (§8) 2.3 Screening of Compounds: • 1. […] Adding 1 μl of the compound diluted in buffer to each well, sealing the plate with a sealing membrane and centrifuging the plate at 1000 g for 30 seconds and leaving it at room temperature for 10 minutes. • 6. Formulating 2.5×TK-substrate-biotin and ATP mixture with 1× enzyme reaction buffer and adding 2 μl of K-substrate-biotin/ATP mixture to the reaction plate. • 7. Sealing the plate with a sealing membrane and centrifuging the plate at 1000 g for 30 seconds and allowing it to react at room temperature for 50 minutes. • 8. […] 3. Data Analysis
# as §5, §6, §7
# FGFR1 V561M [3] = target: T3, FGFR1 V561M (Homo sapiens, UniProt P11362, V561M); assay: as above; settings: Table 1; ATP working concentration 5 μM, substrate TK 1 μM
# T3 construct: purchased Signalchem F04-13G
# T3 sequence (P11362 22-822 V561M): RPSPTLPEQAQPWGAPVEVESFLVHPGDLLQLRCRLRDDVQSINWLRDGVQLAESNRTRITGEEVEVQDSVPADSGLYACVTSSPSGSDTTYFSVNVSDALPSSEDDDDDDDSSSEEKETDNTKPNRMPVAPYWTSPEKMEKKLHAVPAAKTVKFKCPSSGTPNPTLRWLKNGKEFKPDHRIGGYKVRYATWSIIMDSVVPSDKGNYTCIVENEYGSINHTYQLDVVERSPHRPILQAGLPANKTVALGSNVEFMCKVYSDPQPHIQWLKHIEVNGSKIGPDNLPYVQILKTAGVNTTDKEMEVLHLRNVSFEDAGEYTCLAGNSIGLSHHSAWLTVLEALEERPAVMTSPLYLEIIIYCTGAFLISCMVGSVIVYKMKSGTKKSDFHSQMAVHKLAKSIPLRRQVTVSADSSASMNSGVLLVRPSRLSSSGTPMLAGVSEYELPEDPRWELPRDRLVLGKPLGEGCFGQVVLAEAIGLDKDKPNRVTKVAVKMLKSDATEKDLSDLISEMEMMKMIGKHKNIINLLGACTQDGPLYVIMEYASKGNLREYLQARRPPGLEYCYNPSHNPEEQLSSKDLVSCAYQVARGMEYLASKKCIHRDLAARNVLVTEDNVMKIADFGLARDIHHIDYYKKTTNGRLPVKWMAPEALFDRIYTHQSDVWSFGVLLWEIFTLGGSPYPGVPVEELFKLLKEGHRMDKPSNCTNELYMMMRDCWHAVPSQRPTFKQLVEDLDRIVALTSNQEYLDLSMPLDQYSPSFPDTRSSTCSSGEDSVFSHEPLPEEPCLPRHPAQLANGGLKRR
# Protocol: as §1, §2, §8, §5, §6, §7
# VEGFR2 [4] = target: T4, VEGFR2 (Homo sapiens, UniProt P35968); assay: Assay I: kinase inhibition (HTRF KinEASE-TK), VEGFR2; settings: Table 1; ATP working concentration 5 μM, substrate TK 1 μM
# T4 construct: purchased Carna 08-191
# T4 sequence (P35968 20-1356): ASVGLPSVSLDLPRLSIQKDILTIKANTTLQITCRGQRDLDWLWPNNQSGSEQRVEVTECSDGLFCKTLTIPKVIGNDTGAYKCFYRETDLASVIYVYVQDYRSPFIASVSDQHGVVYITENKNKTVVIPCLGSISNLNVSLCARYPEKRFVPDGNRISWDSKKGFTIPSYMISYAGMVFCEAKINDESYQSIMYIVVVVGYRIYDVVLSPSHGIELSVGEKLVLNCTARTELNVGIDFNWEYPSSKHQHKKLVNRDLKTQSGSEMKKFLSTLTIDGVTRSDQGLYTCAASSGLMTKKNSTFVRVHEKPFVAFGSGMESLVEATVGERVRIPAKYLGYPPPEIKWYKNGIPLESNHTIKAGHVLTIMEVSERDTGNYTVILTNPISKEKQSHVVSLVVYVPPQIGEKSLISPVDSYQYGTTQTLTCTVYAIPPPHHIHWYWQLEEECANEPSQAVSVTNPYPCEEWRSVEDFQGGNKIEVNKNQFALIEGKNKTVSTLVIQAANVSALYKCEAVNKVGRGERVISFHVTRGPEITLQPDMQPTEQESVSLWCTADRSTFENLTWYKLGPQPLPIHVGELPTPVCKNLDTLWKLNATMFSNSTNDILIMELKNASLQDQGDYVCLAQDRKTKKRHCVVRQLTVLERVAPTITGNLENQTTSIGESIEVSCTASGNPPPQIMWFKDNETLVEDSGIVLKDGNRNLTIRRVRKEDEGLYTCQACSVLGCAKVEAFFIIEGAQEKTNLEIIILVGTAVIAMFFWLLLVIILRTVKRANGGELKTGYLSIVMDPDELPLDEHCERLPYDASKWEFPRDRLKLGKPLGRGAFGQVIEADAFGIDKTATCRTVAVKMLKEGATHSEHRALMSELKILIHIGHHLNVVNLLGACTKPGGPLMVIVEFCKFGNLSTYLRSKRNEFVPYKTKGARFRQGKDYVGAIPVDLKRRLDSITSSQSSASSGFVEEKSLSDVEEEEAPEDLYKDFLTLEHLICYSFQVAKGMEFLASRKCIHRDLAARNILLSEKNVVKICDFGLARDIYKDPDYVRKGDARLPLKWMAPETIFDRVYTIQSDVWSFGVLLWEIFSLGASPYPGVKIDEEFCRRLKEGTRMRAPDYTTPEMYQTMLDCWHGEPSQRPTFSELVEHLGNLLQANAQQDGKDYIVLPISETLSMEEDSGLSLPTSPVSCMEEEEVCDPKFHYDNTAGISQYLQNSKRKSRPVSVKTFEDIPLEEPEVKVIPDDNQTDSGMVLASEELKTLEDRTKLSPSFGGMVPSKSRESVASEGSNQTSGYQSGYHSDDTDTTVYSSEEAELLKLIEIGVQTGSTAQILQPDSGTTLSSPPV
# FGFR2 V564F [5] = target: T2, FGFR2 V564F; assay: Assay III: inhibitory activity against FGFR mutants (method of Assay I, different operator); settings: Table 3; same method as Assay I, different experimental operator
# Protocol: as §2, §3, §4, §5, §6, §7
# (§9) Assay III: Determination of Inhibitory Activity Against FGFR Mutants
# FGFR3 V555M [6] = target: T1, FGFR3 V555M; assay: as above; settings: Table 3; same method as Assay I, different experimental operator
# Protocol: as §2, §3, §4, §5, §6, §7, §9
# FGFR1 V561M [7] = target: T3, FGFR1 V561M; assay: as above; settings: Table 3; same method as Assay I, different experimental operator
# Protocol: as §2, §3, §4, §5, §6, §7, §9
# VEGFR2 [8] = target: T4, VEGFR2; assay: Assay III: kinase inhibition (method of Assay I, different operator), VEGFR2; settings: Table 3; same method as Assay I, different experimental operator
# Protocol: as §2
# 2.3 Screening of Compounds: • 1. Diluting a compound 4-fold in a dilution plate with DMSO, with a starting compound concentration of 2 mM (4 mM for Nentedanib). • 2. Diluting the compound 40-fold into 1× kinase reaction buffer and shaking it on a shaker for 20 minutes. • 3. Formulating 2×FGFR1 V561M/FGFR2 V564F/FGFR3 K650E/VEGFR2 with 1× of enzyme reaction buffer. • 4. Adding 2 μl FGFR1 V561M/FGFR2 V564F/FGFR3 K650E/VEGFR2 kinase (formulated in step 3) to each well of the reaction plate. • 5. Adding 1 μl of the compound diluted in buffer to each well, sealing the plate with a sealing membrane and centrifuging the plate at 1000 g for 30 seconds and leaving it at room temperature for 10 minutes. • 6. Formulating 2.5×TK-substrate-biotin and ATP mixture with 1× enzyme reaction buffer and adding 2 μl of K-substrate-biotin/ATP mixture to the reaction plate. • 7. Sealing the plate with a sealing membrane and centrifuging the plate at 1000 g for 30 seconds and allowing it to react at room temperature for 50 minutes. • 8. Formulating 4×Sa-XL 665 (250 nM) with HTRF assay buffer. • 9. Adding 5 μl Sa-XL 665 and 5 μl TK-Antibody-Cryptate to each well, centrifuging it at 1000 g for 30 seconds, and allowing it to react for 1 hour at room temperature. • 10. Reading fluorescence signals at 615 nm (Cryptate) and 665 nm (XL665) with Biotek. 3. Data Analysis
# as §4, §5
# The IC50 (half inhibition concentration) of a compound was obtained using the following non-linear fitting equation, wherein data analysis was performed using Graphpad 6.0 software. Y=Bottom+(Top−Bottom)/(1+10^((Log IC50−X)*Hill Slope)) • X: log value of compound concentration; and Y: inhibition rate (% inh) 3.4 Validation of Results
# as §7, §9
# T1 sequence (P22607 23-806 V555M): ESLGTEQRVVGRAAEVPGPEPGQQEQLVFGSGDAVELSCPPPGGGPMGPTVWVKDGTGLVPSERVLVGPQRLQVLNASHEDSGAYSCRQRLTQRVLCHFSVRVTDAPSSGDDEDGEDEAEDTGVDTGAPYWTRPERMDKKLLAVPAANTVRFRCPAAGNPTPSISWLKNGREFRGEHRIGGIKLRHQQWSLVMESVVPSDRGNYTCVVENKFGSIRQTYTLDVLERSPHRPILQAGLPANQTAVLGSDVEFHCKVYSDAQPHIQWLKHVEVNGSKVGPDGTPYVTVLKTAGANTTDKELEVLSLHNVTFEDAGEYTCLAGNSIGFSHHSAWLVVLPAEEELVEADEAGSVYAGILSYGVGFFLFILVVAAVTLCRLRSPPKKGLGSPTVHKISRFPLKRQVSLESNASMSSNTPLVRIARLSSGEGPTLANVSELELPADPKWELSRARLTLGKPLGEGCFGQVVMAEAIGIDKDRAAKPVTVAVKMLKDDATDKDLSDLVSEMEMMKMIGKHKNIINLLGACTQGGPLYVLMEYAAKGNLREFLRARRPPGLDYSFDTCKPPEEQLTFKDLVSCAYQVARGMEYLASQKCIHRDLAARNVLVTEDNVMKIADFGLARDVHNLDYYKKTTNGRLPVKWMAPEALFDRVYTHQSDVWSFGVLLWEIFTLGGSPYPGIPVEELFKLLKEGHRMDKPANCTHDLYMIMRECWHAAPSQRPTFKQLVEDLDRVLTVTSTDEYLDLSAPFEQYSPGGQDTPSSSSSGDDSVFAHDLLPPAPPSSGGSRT
SMILES,IC50 (FGFR3 V555M [1]) [nM],IC50 (FGFR2 V564F [2]) [nM],IC50 (FGFR1 V561M [3]) [nM],IC50 (VEGFR2 [4]) [nM],IC50 (FGFR2 V564F [5]) [nM],IC50 (FGFR3 V555M [6]) [nM],IC50 (FGFR1 V561M [7]) [nM],IC50 (VEGFR2 [8]) [nM]
"CC(Oc1ccc2[nH]nc(C(=O)Nc3cnn(CCN4CCOCC4)c3)c2c1)c1c(Cl)cncc1Cl (stereo not drawn) [Compound 19, 5-(1-(3,5-dichloropyridin-4-yl)ethoxy)-N-(1-(2-morpholinoethyl)-1H-pyrazol-4-yl)-1H-indazole-3-carboxamide]",0.27,0.24,0.35,63.4,,,,
"CC(Oc1ccc2[nH]nc(C(=O)Nc3cnn(C4CN(C)C4)c3)c2c1)c1c(Cl)cncc1Cl (stereo not drawn) [Compound 21, 5-(1-(3,5-dichloropyridin-4-yl)ethoxy)-N-(1-(1-methylazetidin-3-yl)-1H-pyrazol-4-yl)-1H-indazole-3-carboxamide]",0.15,0.09,0.27,39.4,,,,
"CC(Oc1ccc2[nH]nc(C(=O)Nc3cnn(CCC#N)c3)c2c1)c1c(Cl)cncc1Cl (stereo not drawn) [Compound 11, N-(1-(2-cyanoethyl)-1H-pyrazol-4-yl)-5-(1-(3,5-dichloropyridin-4-yl)ethoxy)-1H-indazole-3-carboxamide]",1.7,1.1,5.6,230,,,,
"CC(Oc1ccc2[nH]nc(C(=O)Nc3ccc(N4CCOCC4)nc3)c2c1)c1c(Cl)cncc1Cl (stereo not drawn) [Compound 4, 5-(1-(3,5-dichloropyridin-4-yl)ethoxy)-N-(6-morpholinopyridin-3-yl)-1H-indazole-3-carboxamide]",,9.5,95.1,1590,,,,
"CC(Oc1ccc2[nH]nc(C(=O)Nc3cnn(CCC4(O)CC4)c3)c2c1)c1c(Cl)cncc1Cl (stereo not drawn) [Compound 15, 5-(1-(3,5-dichloropyridin-4-yl)ethoxy)-N-(1-(2-(1-hydroxycyclopropyl)ethyl)-1H-pyrazol-4-yl)-1H-indazole-3-carboxamide]",2.1,0.84,2.2,66.2,,,,
"CC(Oc1ccc2[nH]nc(C(=O)Nc3ccc(N4CCC(O)CC4)cc3)c2c1)c1c(Cl)cncc1Cl (stereo not drawn) [Compound 13, 5-(1-(3,5-dichloropyridin-4-yl)ethoxy)-N-(4-(4-hydroxypiperidin-1-yl)phenyl)-1H-indazole-3-carboxamide]",5.9,8.9,6.8,> 10000,,,,
"CC(Oc1ccc2[nH]nc(C(=O)Nc3ccc(N4CC[C@@H](O)C4)cc3)c2c1)c1c(Cl)cncc1Cl (stereo partly drawn) [Compound 3, 5-(1-(3,5-dichloropyridin-4-yl)ethoxy)-N-(4-((R)-3-hydroxypyrrolidin-1-yl)phenyl)-1H-indazole-3-carboxamide]",,22.1,69.7,> 10000,,,,
"C[C@@H](O)Cn1cc(NC(=O)c2n[nH]c3ccc(O[C@H](C)c4c(Cl)cncc4Cl)cc23)cn1 [Compound 33, 5-((R)-1-(3,5-dichloropyridin-4-yl)ethoxy)-N-(1-((R)-2-hydroxypropyl)-1H-pyrazol-4-yl)-1H-indazole-3-carboxamide]",,,,,0.33,0.39,1,99
"CC(Oc1ccc2[nH]nc(C(=O)Nc3cnn(CC(=O)N(C)C)c3)c2c1)c1c(Cl)cncc1Cl (stereo not drawn) [Compound 24, 5-(1-(3,5-dichloropyridin-4-yl)ethoxy)-N-(1-(2-(dimethylamino)-2-oxoethyl)-1H-pyrazol-4-yl)-1H-indazole-3-carboxamide]",,,,,0.43,1.3,3.3,201
"CC(Oc1ccc2[nH]nc(C(=O)Nc3ccc(CN4CCOCC4)cc3)c2c1)c1c(Cl)cncc1Cl (stereo not drawn) [Compound 30, 5-(1-(3,5-dichloropyridin-4-yl)ethoxy)-N-(4-(morpholinomethyl)phenyl)-1H-indazole-3-carboxamide]",,,,,3.7,7.6,36,729

# Next, values leading:
IC50 (FGFR3 V555M [1]) [nM],IC50 (FGFR2 V564F [2]) [nM],IC50 (FGFR1 V561M [3]) [nM],IC50 (VEGFR2 [4]) [nM],IC50 (FGFR2 V564F [5]) [nM],IC50 (FGFR3 V555M [6]) [nM],IC50 (FGFR1 V561M [7]) [nM],IC50 (VEGFR2 [8]) [nM],SMILES
,,,,0.4,0.59,3.7,61,"C[C@@H](Oc1ccc2[nH]nc(C(=O)Nc3cnn(CC(C)(C)O)c3)c2c1)c1c(Cl)cncc1Cl [Compound 38, (R)-5-(1-(3,5-dichloropyridin-4-yl)ethoxy)-N-(1-(2-hydroxy-2-methylpropyl)-1H-pyrazol-4-yl)-1H-indazole-3-carboxamide]"
,,,,0.43,0.44,1.1,169,C[C@@H](Oc1ccc2[nH]nc(C(=O)Nc3cnn(CC4CCCN4C)c3)c2c1)c1c(Cl)cncc1Cl (stereo partly drawn) [Compound 42]
,,,,0.16,0.27,0.29,89,"C[C@@H](Oc1ccc2[nH]nc(C(=O)Nc3cnn(C4CC(O)C4)c3)c2c1)c1c(Cl)cncc1Cl (stereo partly drawn) [Compound 35, (R)-5-(1-(3,5-dichloropyridin-4-yl)ethoxy)-N-(1-(3-hydroxycyclobutyl)-1H-pyrazol-4-yl)-1H-indazole-3-carboxamide]"
,,,,0.06,0.75,0.24,61,"CCn1cc(NC(=O)c2n[nH]c3ccc(O[C@H](C)c4c(Cl)cncc4Cl)cc23)cn1 [Compound 34, (R)-5-(1-(3,5-dichloropyridin-4-yl)ethoxy)-N-(1-ethyl-1H-pyrazol-4-yl)-1H-indazole-3-carboxamide]"
,,,,1.2,2.1,2.3,194,"C[C@@H](Oc1ccc2[nH]nc(C(=O)Nc3cnn(C4CCOCC4)c3)c2c1)c1c(Cl)cncc1Cl [Compound 47, (R)-5-(1-(3,5-dichloropyridin-4-yl)ethoxy)-N-(1-(tetrahydro-2H-pyran-4-yl)-1H-pyrazol-4-yl)-1H-indazole-3-carboxamide]"
,,,,0.44,0.16,1.6,79,"C[C@@H](Oc1ccc2[nH]nc(C(=O)Nc3cnn(CCN4CCOCC4)c3)c2c1)c1c(Cl)cncc1Cl [Compound 37, (R)-5-(1-(3,5-dichloropyridin-4-yl)ethoxy)-N-(1-(2-morpholinoethyl)-1H-pyrazol-4-yl)-1H-indazole-3-carboxamide]"
,,,,0.1,0.14,0.34,62,"C[C@@H](Oc1ccc2[nH]nc(C(=O)Nc3cnn(CC4CCCCN4C)c3)c2c1)c1c(Cl)cncc1Cl (stereo partly drawn) [Compound 45, 5-((R)-1-(3,5-dichloropyridin-4-yl)ethoxy)-N-(1-((1-methylpiperidin-2-yl)methyl)-1H-pyrazol-4-yl)-1H-indazole-3-carboxamide]"
